The record followed here is US7709513B2, “Benzooxazol-2-one derivatives as lipase and phospholipase inhibitors” (Sanofi-Aventis, priority 2005, dated 2010).

This assay deals with T1, endothelial lipase (EL) (Homo sapiens, UniProt Q9Y5X9).
T1 construct: made in house; host or cells: recombinant cell lines (CHO, HEK293); concentrated conditioned medium used as enzyme solution
T1 sequence (Q9Y5X9 21-500): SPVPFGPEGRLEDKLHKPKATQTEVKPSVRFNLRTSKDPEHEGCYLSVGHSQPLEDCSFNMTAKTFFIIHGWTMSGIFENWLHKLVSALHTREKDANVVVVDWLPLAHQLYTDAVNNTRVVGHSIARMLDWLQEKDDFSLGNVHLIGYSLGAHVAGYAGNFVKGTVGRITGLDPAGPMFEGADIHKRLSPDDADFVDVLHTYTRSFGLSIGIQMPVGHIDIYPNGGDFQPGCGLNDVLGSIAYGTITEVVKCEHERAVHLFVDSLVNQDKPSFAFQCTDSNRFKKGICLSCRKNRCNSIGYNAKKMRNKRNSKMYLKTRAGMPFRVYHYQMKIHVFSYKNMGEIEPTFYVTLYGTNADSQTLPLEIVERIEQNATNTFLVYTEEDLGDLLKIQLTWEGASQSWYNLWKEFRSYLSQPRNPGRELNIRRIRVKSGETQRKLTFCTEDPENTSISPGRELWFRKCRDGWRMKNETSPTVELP
As to the kind of experiment: Further EL inhibition assay. Type of assay: biochemical. Particulars: Bodipy-labelled phospholipid substrate, 37° C., 90 minutes, HPTLC fluorescence readout; EL from conditioned medium of recombinant cell lines (CHO, HEK293). The source says:
EL is released as secretory protein in high concentration into cell culture medium (conditioned medium) by recombinant cell lines (CHO, HEK293). This is employed as enzyme solution after concentration.
The phospholipase-specific substrate 1,2-bis(4,4-difluoro-5,7-dimethyl-4-bora-3a,4a-diaza-s-indacene-3-undecanoyl)-sn-glycero-3-phosphocholine, (manufacturer Molecular Probes) is used to characterize the enzymatic activity of endothelial lipase and the effect of inhibitors. Hydrolysis of the A1 ester linkage of this phospholipid by the enzyme liberates the fluorescent dye Bodipy which can be detected after separation by thin-layer chromatography on an HPTLC plate (silica gel 60, Merck) or directly in the reaction vessel by measuring the fluorescence.
The substrate solution is prepared by dissolving 100 μg of 1,2-bis(4,4-difluoro-5,7-dimethyl-4-bora-3a,4a-diaza-s-indacene-3-undecanoyl)-sn-glycero-3-phospho-choline (manufacturer Molecular Probes) in 100 μl of DMSO and taking up in 2.4 mg of tripalmitin (Sigma) in 393 μl of chloroform which comprises 20 mg/ml DOP-choline (1,2-dioleoyl-sn-glycero-3-phosphocholine). 39.3 μl of this lipid mixture are transferred into a fresh reaction vessel, and the solvent is evaporated off. The lipid mixture is dissolved in 4 ml of 200 mM TRIS-HCl, 150 mM sodium chloride, pH=7.4, by sonication twice. The subsequent enzymic reaction takes place at 37° C. for 90 minutes. For this purpose, 20 μl of the substrate solution are incubated with 2 μl of inhibitor of appropriate concentration (dissolved in 10% DMSO, using 10% strength DMSO solution for control) and 2 μl of enzyme solution (conditioned medium). The 4 μl of the assay mixture are loaded onto an HPTLC plate (silica gel 60, Merck), and the liberated fluorescent dye is separated for detection with an eluent (diethyl ether:petroleum benzine:acetic acid [78:22:1]). After evaporation of the eluent, the plate is read in a fluorescence scanner. An increased liberation of the fluorescent dye in the uninhibited reaction is to be observed as a measure of the enzymic activity.

In general, IC50 refers to the concentration needed to halve the response being measured.

With `CC(=O)c1ccc2c(c1)oc(=O)n2C(=O)NCc1ccccc1` [Example 1, 6-Acetyl-2-oxobenzooxazole-3-benzylcarboxamide], the IC50 is 0.13 µM.
In the case of `CC(=O)c1ccc2c(c1)oc(=O)n2C(=O)NCc1ccccc1C` [Example 2, 6-Acetyl-2-oxobenzooxazole-3-(2-methylbenzyl)carboxamide], the IC50 is 0.51 µM.
As for `CCCCCCNC(=O)n1c(=O)oc2cc(C(C)=O)ccc21` [Example 3, 6-Acetyl-2-oxobenzooxazole-3-hexylcarboxamide], the IC50 stood at 0.06 µM.
In the case of `Cc1ccccc1CNC(=O)n1c(=O)oc2ccccc21` [Example 5, 2-Oxobenzooxazole-3-(2-methylbenzyl)carboxamide], the IC50 was found to be 0.95 µM.
For `O=C(NCc1ccccc1)n1c(=O)oc2ccc(Cl)cc21` [Example 7, 5-Chloro-2-oxobenzooxazole-3-benzylcarboxamide], the IC50 worked out at 0.23 µM.
